Biological target: T1, Solute carrier family 2, facilitated glucose transporter member 1 (Homo sapiens, UniProt P11166)
T1 sequence (P11166 whole entry): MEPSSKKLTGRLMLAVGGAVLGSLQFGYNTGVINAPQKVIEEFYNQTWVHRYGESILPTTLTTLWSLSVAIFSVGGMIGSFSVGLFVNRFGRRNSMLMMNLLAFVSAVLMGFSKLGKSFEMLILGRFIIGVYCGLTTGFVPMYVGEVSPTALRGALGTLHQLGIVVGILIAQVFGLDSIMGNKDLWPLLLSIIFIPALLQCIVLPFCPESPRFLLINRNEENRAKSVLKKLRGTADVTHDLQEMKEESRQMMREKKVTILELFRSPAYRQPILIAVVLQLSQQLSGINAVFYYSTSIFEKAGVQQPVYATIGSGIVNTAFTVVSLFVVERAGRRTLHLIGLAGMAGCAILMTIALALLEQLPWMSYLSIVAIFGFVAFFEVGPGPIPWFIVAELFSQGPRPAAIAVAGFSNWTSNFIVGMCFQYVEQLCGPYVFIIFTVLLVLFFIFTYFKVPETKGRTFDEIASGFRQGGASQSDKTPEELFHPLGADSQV
Assay: Inhibition of the Glucose Transporter (GLUT1, SLC2A1) as assessed by a FRET based flow cytometry assay using a genetically-encoded biosensor for measuring free glucose (FLII12Pglu-700uDelta6) in HEK293 JumpIN TRex SLC2A1 WT-OE cells (PubChem AID: 1794830)
Format: functional, cell-based

| EC50 [µM] | IC50 [µM] | SMILES |
| --- | --- | --- |
| 527 | – | OC[C@H]1OC(O)[C@H](O)[C@@H](O)[C@@H]1O (some centres not stated) [DEXTROSE] |
| – | > 10 | O=C(Oc1cccc(F)c1OC(=O)c1cccc(O)c1)c1cccc(O)c1 |

Source: ChEMBL document CHEMBL5209577, “Flow cytometry transport assay for SLC2A1 using HEK293 JumpIN TRex SLC2A1 WT-OE cells” (2022)
